Measurements reported in ChEMBL document CHEMBL5230103, “Hydroxamic acid hybrids as the potential anticancer agents: An Overview” (Eur J Med Chem, 2020).

Columns and labels:
[1] = system: Raji; experiment: Cytotoxicity against human Raji cells assessed as inhibition of cell growth by SRB assay; format: functional, cell-based
[2] = target: Histone deacetylase; experiment: Inhibition of HDAC (unknown origin); format: protein assay, Homo sapiens
[3] = system: Ramos; experiment: Cytotoxicity against human Ramos cells assessed as inhibition of cell growth by SRB assay; format: functional, cell-based
[4] = system: MV4-11; experiment: Cytotoxicity against human MV4-11 cells assessed as inhibition of cell growth by SRB assay; format: functional, cell-based
[5] = system: PLC-PRF-5; experiment: Cytotoxicity against human PLC-PRF-5 cells assessed as inhibition of cell growth by SRB assay; format: functional, cell-based
[6] = system: SNU-398; experiment: Cytotoxicity against human SNU-398 cells assessed as inhibition of cell growth by SRB assay; format: functional, cell-based
[7] = system: SNU-387; experiment: Cytotoxicity against human SNU-387 cells assessed as inhibition of cell growth by SRB assay; format: functional, cell-based
[8] = Toxicity in BALB/c mouse assessed as maximum tolerated dose; conditions: in vivo
[9] = system: SU-DHL-6; experiment: Cytotoxicity against human SU-DHL-6 cells assessed as inhibition of cell growth by SRB assay; format: functional, cell-based
[10] = system: K562; experiment: Cytotoxicity against human K562 cells assessed as inhibition of cell growth by SRB assay; format: functional, cell-based
[11] = system: PC-3; experiment: Cytotoxicity against human PC-3 cells assessed as inhibition of cell growth by SRB assay; format: functional, cell-based
[12] = system: Huh-7; experiment: Cytotoxicity against human Huh-7 cells assessed as inhibition of cell growth by SRB assay; format: functional, cell-based
[13] = system: MCF7; experiment: Cytotoxicity against human MCF7 cells assessed as inhibition of cell growth by SRB assay; format: functional, cell-based
[14] = Oral bioavailability in BALB/c mouse at 200 mg/kg; format: ADME, organism-based; conditions: in vivo
[15] = system: SK-HEP1; experiment: Cytotoxicity against human SK-HEP1 cells assessed as inhibition of cell growth by SRB assay; format: functional, cell-based
[16] = system: HepG2; experiment: Cytotoxicity against human HepG2 cells assessed as inhibition of cell growth by SRB assay; format: functional, cell-based
[17] = system: MOLT-4; experiment: Cytotoxicity against human MOLT-4 cells assessed as inhibition of cell growth by SRB assay; format: functional, cell-based
[18] = system: MCF7; experiment: Cytotoxicity against human MCF7 cells assessed as inhibition of cell growth by MTT assay; format: functional, cell-based
[19] = Selectivity index, ratio of IC50 for cytotoxicity against human MCF-10A cells to IC50 for cytotoxicity against human MCF7 cells; format: toxicity, cell-based; conditions: MCF-10A cells and MCF7 cells, read-out: Ratio IC50
[20] = target: Histone deacetylase 2 (Homo sapiens, UniProt Q92769); experiment: Inhibition of HDAC2 (unknown origin)
[21] = system: MCF7; experiment: Potency index, ratio of vorinostat IC50 to test compound IC50 for cytotoxicity against human MCF7 cells assessed as inhibition of cell growth by MTT assay; format: functional
[22] = Cytotoxicity against human BEAS-2B cells; format: toxicity, cell-based
[23] = system: A549; experiment: Cytotoxicity against human A549 cells assessed as inhibition of cell growth by MTT assay; format: functional, cell-based
[24] = Selectivity index, ratio of IC50 for cytotoxicity against human BEAS-2B cells to IC50 for cytotoxicity against human A549 cells; format: toxicity, cell-based; conditions: BEAS-2B cells and A549 cells, read-out: Ratio IC50
[25] = Selectivity index, ratio of IC50 for cytotoxicity against human MCF-10F cells to IC50 for cytotoxicity against human MDA-MB-231 cells; format: toxicity, cell-based; conditions: MCF-10F cells and MDA-MB-231 cells, read-out: Ratio IC50
[26] = system: A549; experiment: Potency index, ratio of vorinostat IC50 to test compound IC50 for cytotoxicity against human A549 cells assessed as inhibition of cell growth by MTT assay; format: functional
[27] = Cytotoxicity against human MCF-10F cells; format: toxicity, cell-based
[28] = target: Histone deacetylase 1 (Homo sapiens, UniProt Q13547); experiment: Inhibition of HDAC1 (unknown origin)
[29] = target: T1, Protein deacetylase HDAC6 (Homo sapiens, UniProt Q9UBN7); experiment: Inhibition of HDAC6 (unknown origin)
T1 sequence (Q9UBN7 whole entry): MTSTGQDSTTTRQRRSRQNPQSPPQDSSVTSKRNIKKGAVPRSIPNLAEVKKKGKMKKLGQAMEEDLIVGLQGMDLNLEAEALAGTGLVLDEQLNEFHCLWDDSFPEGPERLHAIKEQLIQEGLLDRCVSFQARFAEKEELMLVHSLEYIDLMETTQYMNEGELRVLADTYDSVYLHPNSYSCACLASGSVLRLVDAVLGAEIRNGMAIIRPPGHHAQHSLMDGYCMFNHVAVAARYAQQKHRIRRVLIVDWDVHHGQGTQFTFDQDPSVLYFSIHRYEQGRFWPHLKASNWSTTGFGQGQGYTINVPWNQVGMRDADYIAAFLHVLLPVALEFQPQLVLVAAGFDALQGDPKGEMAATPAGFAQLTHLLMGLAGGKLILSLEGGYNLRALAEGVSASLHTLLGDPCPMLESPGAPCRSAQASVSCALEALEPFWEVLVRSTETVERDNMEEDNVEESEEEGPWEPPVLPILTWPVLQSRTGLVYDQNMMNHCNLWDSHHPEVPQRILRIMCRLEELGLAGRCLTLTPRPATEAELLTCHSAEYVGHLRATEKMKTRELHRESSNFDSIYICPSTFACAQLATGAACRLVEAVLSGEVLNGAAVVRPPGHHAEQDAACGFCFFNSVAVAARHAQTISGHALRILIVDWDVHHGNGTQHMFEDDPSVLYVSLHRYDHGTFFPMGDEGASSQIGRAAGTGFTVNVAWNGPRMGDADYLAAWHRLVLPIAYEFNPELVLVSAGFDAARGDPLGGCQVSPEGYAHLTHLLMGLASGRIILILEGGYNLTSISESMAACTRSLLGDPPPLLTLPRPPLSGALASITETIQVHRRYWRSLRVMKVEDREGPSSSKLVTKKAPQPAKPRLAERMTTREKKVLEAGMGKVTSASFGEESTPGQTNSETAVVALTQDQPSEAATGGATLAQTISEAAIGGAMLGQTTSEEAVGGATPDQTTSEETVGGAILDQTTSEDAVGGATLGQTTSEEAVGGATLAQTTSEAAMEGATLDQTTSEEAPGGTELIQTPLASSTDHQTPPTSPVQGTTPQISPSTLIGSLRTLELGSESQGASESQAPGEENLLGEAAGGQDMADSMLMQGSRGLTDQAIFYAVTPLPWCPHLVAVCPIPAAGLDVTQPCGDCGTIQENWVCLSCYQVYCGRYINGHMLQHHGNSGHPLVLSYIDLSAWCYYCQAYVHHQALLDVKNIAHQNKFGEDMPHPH

[30] = Selectivity index, ratio of IC50 for cytotoxicity against human BEAS-2B cells to IC50 for cytotoxicity against human MDA-MB-231 cells; format: toxicity, cell-based; conditions: BEAS-2B cells and MDA-MB-231 cells, read-out: Ratio IC50
[31] = Selectivity index, ratio of IC50 for cytotoxicity against human MCF-10A cells to IC50 for cytotoxicity against human A549 cells; format: toxicity, cell-based; conditions: MCF-10A cells and A549 cells, read-out: Ratio IC50
[32] = system: MDA-MB-231; experiment: Potency index, ratio of vorinostat IC50 to test compound IC50 for cytotoxicity against human MDA-MB-231 cells assessed as inhibition of cell growth by MTT assay; format: functional
[33] = Cytotoxicity against human MCF-10A cells; format: toxicity, cell-based
[34] = Selectivity index, ratio of IC50 for cytotoxicity against human MCF-10A cells to IC50 for cytotoxicity against human MDA-MB-231 cells; format: toxicity, cell-based; conditions: MCF-10A cells and MDA-MB-231 cells, read-out: Ratio IC50
[35] = system: MDA-MB-231; experiment: Cytotoxicity against human MDA-MB-231 cells assessed as inhibition of cell growth by MTT assay; format: functional, cell-based
[36] = target: Histone deacetylase 8 (Homo sapiens, UniProt Q9BY41); experiment: Inhibition of HDAC8 (unknown origin)
[37] = Selectivity index, ratio of IC50 for cytotoxicity against human MCF-10F cells to IC50 for cytotoxicity against human A549 cells; format: toxicity, cell-based; conditions: MCF-10F cells and A549 cells, read-out: Ratio IC50
[38] = Selectivity index, ratio of IC50 for cytotoxicity against human BEAS-2B cells to IC50 for cytotoxicity against human MCF7 cells; format: toxicity, cell-based; conditions: BEAS-2B cells and MCF7 cells, read-out: Ratio IC50
[39] = system: MDA-MB-231; experiment: Antitumor activity against human MDA-MB-231 cells xenografted in mouse assessed as reduction on tumor volume at 20 mg/kg, ip relative to control; format: functional; set-up: scale not given: the % may be the effect or the level left
[40] = Selectivity index, ratio of IC50 for cytotoxicity against human MCF-10F cells to IC50 for cytotoxicity against human MCF7 cells; format: toxicity, cell-based; conditions: MCF-10F cells and MCF7 cells, read-out: Ratio IC50
[41] = target: Histone deacetylase 3 (Homo sapiens, UniProt O15379); experiment: Inhibition of HDAC3 (unknown origin)
[42] = system: HL-60; experiment: Antiproliferative activity against human HL-60 cells assessed as inhibition of cell growth by MTT assay; format: functional, cell-based
[43] = system: A549; experiment: Antitumor activity against human A549 cells xenografted in mouse assessed as inhibition of tumor growth at 30 mg/kg, ip relative to control; format: functional
[44] = Cytotoxicity against human HuT 102 cells assessed as inhibition of cell growth by MTT assay; format: functional, cell-based

Chain of Histone deacetylase 1 (Q13547 whole entry): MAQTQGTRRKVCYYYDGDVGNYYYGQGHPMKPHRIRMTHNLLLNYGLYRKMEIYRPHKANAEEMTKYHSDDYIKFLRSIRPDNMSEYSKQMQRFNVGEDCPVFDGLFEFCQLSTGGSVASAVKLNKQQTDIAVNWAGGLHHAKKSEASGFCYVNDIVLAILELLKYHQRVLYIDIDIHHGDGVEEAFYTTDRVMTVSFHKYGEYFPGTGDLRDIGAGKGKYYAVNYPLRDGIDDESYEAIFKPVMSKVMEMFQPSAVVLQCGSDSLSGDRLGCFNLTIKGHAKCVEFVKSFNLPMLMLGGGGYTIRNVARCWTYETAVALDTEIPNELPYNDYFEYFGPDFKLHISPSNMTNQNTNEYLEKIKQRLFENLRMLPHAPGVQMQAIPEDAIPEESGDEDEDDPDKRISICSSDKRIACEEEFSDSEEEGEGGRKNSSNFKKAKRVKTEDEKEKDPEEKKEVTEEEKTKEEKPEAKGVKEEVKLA
Chain of Histone deacetylase 8 (Q9BY41 whole entry): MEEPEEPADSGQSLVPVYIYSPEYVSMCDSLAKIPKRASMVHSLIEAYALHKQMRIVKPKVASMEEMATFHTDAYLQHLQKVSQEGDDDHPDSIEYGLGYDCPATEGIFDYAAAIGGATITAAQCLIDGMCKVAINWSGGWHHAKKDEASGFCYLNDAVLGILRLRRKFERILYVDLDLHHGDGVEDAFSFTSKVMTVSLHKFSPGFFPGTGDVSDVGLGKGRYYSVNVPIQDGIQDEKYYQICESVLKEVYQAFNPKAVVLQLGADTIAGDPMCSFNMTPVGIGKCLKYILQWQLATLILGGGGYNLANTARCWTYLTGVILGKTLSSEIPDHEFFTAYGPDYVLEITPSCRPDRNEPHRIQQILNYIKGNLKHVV
Chain of Histone deacetylase 3 (O15379 whole entry): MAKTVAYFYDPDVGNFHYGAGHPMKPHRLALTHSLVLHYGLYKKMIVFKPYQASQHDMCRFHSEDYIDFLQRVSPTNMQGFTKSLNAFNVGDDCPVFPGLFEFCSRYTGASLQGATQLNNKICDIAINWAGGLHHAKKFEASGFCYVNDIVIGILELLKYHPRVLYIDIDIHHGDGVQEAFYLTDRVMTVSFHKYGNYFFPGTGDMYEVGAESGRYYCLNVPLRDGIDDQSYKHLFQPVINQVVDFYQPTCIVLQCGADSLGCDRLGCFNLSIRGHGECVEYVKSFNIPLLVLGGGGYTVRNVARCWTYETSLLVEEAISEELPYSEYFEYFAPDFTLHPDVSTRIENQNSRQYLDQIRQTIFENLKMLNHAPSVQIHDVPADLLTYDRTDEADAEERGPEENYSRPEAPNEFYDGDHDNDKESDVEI
Chain of Histone deacetylase 2 (Q92769 whole entry): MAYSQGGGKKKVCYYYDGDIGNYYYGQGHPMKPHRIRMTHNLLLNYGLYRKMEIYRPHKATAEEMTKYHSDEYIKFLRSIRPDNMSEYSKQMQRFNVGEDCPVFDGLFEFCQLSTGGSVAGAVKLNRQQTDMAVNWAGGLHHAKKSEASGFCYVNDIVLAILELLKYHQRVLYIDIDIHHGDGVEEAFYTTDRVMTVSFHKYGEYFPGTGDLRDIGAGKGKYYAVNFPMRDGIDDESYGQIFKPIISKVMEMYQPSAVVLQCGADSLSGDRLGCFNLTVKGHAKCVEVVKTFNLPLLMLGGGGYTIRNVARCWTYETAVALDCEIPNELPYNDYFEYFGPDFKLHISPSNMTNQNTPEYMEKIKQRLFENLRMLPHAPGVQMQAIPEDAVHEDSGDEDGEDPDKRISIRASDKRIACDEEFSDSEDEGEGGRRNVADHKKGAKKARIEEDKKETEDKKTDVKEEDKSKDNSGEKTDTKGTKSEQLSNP

CC(C)n1cnc2c(-c3cccc(OCCCCC(=O)NO)c3)nc(N3CCOCC3)nc21
IC50 [1]: 0.16 µM | IC50 [2]: 0.035 µM | IC50 [3]: 0.16 µM | IC50 [4]: 0.16 µM | IC50 [5]: 0.16 µM | IC50 [6]: 0.16 µM | IC50 [7]: 0.16 µM | MTD [8]: 200 mg/kg | IC50 [9]: 0.16 µM | IC50 [10]: 0.16 µM | IC50 [11]: 0.16 µM | IC50 [12]: 0.16 µM | IC50 [13]: 0.16 µM | bioavailability [14]: 62% | IC50 [15]: 0.16 µM | IC50 [16]: 0.16 µM | IC50 [17]: 0.16 µM

O=C(CCCCCC(=O)N(Cc1ccc(Br)s1)c1ccc(OCCN2CCOCC2)cc1)NO
IC50 [18]: 0.62 µM | selectivity ratio [19]: > 16.2 | IC50 [20]: 0.00114 µM | Ratio IC50 [21]: 3.7 | IC50 [22]: > 100 µM | IC50 [23]: 0.62 µM | selectivity ratio [24]: > 16.2 | selectivity ratio [25]: > 16.2 | Ratio IC50 [26]: 3.7 | IC50 [27]: > 100 µM | IC50 [28]: 0.00114 µM | IC50 [29]: 0.00114 µM | selectivity ratio [30]: > 16.2 | selectivity ratio [31]: > 16.2 | Ratio IC50 [32]: 3.7 | IC50 [33]: > 100 µM | selectivity ratio [34]: > 16.2 | IC50 [35]: 0.62 µM | IC50 [36]: 0.00114 µM | selectivity ratio [37]: > 16.2 | selectivity ratio [38]: > 16.2 | Activity [39]: 93% | selectivity ratio [40]: > 16.2

O=C(/C=C/c1ccc(S(=O)(=O)Nc2cc(F)cc(F)c2)cc1)NO
IC50 [41]: 0.0052 µM | IC50 [42]: 0.77 µM | inhibition in vivo at 30 mg/kg [43]: 41.5% | IC50 [44]: 0.77 µM | IC50 [28]: 0.0052 µM | IC50 [29]: 0.0052 µM
